Laboratory results taken from patent publication US4118487A, “Substituted azol-1-ylmethanes” (Bayer Aktiengesellschaft, priority 1974, dated 1978).
≈ marks a conversion by molar mass, not a printed value. Like-named read-outs stand apart in the source and are kept apart here.

How the values were obtained:
penicillium = assay: Antimycotic activity in vitro, series dilution test (MIC); type: cell-based; conditions: 28° C., 24-96 hours, Sabouraud's milieu d'epreuve, 5 × 10^4 germs/ml, read-out: MIC values in γ/ml of nutrient medium, for penicillium
Experimental: (§1) The in vitro tests were carried out in a series dilution test with germ inocula averaging 5 × 10^4 germs/ml of substrate. The nutrient media used were
(§2) (a) for dermatophytes and molds Sabouraud's milieu d'epreuve,
(§3) The incubation temperatures were 28° C. for dermatophytes, yeasts and molds and 37° C. for biphase fungi; the incubation time was 24-96 hours.

Aspergillus fumigatus = assay: as above; type: cell-based; conditions: read-out: MIC values in γ/ml of nutrient medium, for Aspergillus fumigatus
Experimental: as §1, §2, §3

[1] = tested on: Trichophyton mentagrophvtes; assay: as above; type: cell-based, Trichophyton mentagrophytes; conditions: 28° C., 24-96 hours, Sabouraud's milieu d'epreuve, 5 × 10^4 germs/ml, read-out: MIC values in γ/ml of nutrient medium, for Trichophyton mentagrophvtes
Experimental: as §1, §2, §3

Histoplasma = assay: microbe, parasite or virus in culture; type: cell-based; conditions: read-out: MIC values in γ/ml of nutrient medium, for Histoplasma
Candida albicans = assay: Antimycotic activity in vitro, series dilution test (MIC); type: cell-based; conditions: read-out: MIC values in γ/ml of nutrient medium, for Candida albicans
Experimental: as §1
(b) for yeasts: meat extract-glucose bouillon,
as §3

Pityrosporum ovale = assay: as above; type: cell-based; conditions: Malassezia furfur; Abbe medium, 24-96 hours, 5 × 10^4 germs/ml; read-out: MIC values in γ/ml of nutrient medium, for Pityrosporum ovale
Experimental: The in vitro tests were carried out in a series dilution test with germ inocula averaging 5 × 10^4 germs/ml of substrate. The nutrient media used were (c) for Pytrosporum ovale: Abbe medium, and The incubation temperatures were 28° C. for dermatophytes, yeasts and molds and 37° C. for biphase fungi; the incubation time was 24-96 hours.

[2] = tested on: Staphylococcus aureus 133; assay: Antibacterial activity in vitro, plast test (MIC); type: cell-based; conditions: agar plate, 5 × 10^3 /plate, pH 7.4
Experimental: (§4) The in vitro tests were carried out by the plast test. In this, the bacteria were cast with the agar, at a concentration of 5 × 10^3 /plate. […]

Streptococcus pyogenes W = assay: Antibacterial activity in vitro, plast test (MIC); type: cell-based; conditions: agar plate, 5 × 10^3 /plate, pH 7.4; in µg/mL
Experimental: as §4

Proteus vulgaris 1017 = assay: Antibacterial activity in vitro, plast test (MIC); type: cell-based; conditions: agar plate, 5 × 10^3 /plate, pH 7.4
Experimental: as §4

Pseudomonas aerug. B = assay: Antibacterial activity in vitro, plast test (MIC); type: cell-based; conditions: agar plate, 5 × 10^3 /plate, pH 7.4
Experimental: as §4

Klebsiella 8085 = assay: Antibacterial activity in vitro, plast test (MIC); type: cell-based; conditions: agar plate, 5 × 10^3 /plate, pH 7.4
Experimental: as §4

fungi = conditions: Belgian Pat. No. 720,801; cited from earlier work
E-Coli A 261 = assay: Antibacterial activity in vitro, plast test (MIC); type: cell-based; conditions: agar plate, 5 × 10^3 /plate, pH 7.4
Experimental: as §4

bacteria = assay: Antibacterial activity (general statement); type: cell-based
[3] = 28° C., 24-96 hours, Sabouraud's milieu d'epreuve, 5 × 10^4 germs/ml
[4] = 28° C., 24-96 hours, meat extract-glucose bouillon, 5 × 10^4 germs/ml

## Clc1ccccc1C(c1ccc(Oc2ccccc2)cc1)n1ccnc1 (centres unmarked)
penicillium
  MIC: < 0.1 µg/mL
Aspergillus fumigatus; [3]
  MIC: < 0.1 µg/mL
[1]
  MIC: 16 µg/mL (≈ 44.3 µM)
Histoplasma
  MIC: 2 µg/mL (≈ 5.54 µM)
Candida albicans; [4]
  MIC: 8 µg/mL (≈ 22.2 µM)
Pityrosporum ovale
  MIC: 1 µg/mL (≈ 2.77 µM)

## Clc1ccc(C(c2ccc(-c3ccccc3)cc2)n2ccnc2)cc1 (centres unmarked)
[2]
  MIC values for Staphylococcus aureus 133: 8 µg/mL
Streptococcus pyogenes W
  MIC values for Streptococcus pyogenes W: 10

## CC(C)(C)c1ccc(C(c2ccc(-c3ccccc3)cc2)n2ccnc2)cc1 (centres unmarked)
Proteus vulgaris 1017
  MIC values for Proteus vulgaris 1017: 128 µg/mL
[2]
  MIC values for Staphylococcus aureus 133: 8 µg/mL
Streptococcus pyogenes W
  MIC values for Streptococcus pyogenes W: 128
Pseudomonas aerug. B
  MIC values for Pseudomonas aerug. B: 256 µg/mL
Klebsiella 8085
  MIC values for Klebsiella 8085: 128 µg/mL

## Clc1ccccc1C(c1ccccc1)(c1ccccc1)n1ccnc1 [clotrimazol, bisphenyl-(2-chlorophenyl)-imidazol-1-ylmethane]
fungi
  antimycotic action: good antimycotic action

## c1ccc(-c2ccc(C(c3ccccc3)n3ccnc3)cc2)cc1 (centres unmarked) [drawing 9]
penicillium
  MIC: < 0.1 µg/mL
Aspergillus fumigatus
  MIC: < 0.1 µg/mL
[1]
  MIC: < 1 µg/mL
Histoplasma
  MIC: 4 µg/mL (≈ 12.9 µM)
Candida albicans
  MIC: 4 µg/mL (≈ 12.9 µM)
Pityrosporum ovale
  MIC: 1 µg/mL (≈ 3.22 µM)

## Clc1ccccc1C(c1ccc(-c2ccccc2)cc1)n1ccnc1 (centres unmarked) [drawing 10]
penicillium
  MIC: < 0.1 µg/mL
Aspergillus fumigatus; [3]
  MIC: < 0.1 µg/mL
[1]
  MIC: < 1 µg/mL
Histoplasma
  MIC: 4 µg/mL (≈ 11.6 µM)
Candida albicans; [4]
  MIC: 2 µg/mL (≈ 5.8 µM)
Pityrosporum ovale
  MIC: 1 µg/mL (≈ 2.9 µM)

## Clc1cccc(C(c2ccc(-c3ccccc3)cc2)n2ccnc2)c1 (centres unmarked) [drawing 11]
penicillium
  MIC: < 0.1 µg/mL
Aspergillus fumigatus; [3]
  MIC: < 0.1 µg/mL
[1]
  MIC: 2 µg/mL (≈ 5.8 µM)
Histoplasma
  MIC: 2 µg/mL (≈ 5.8 µM)
Candida albicans; [4]
  MIC: 1 µg/mL (≈ 2.9 µM)
Pityrosporum ovale
  MIC: 1 µg/mL (≈ 2.9 µM)

## c1ccc(-c2ccc(C(c3ccccc3)n3ccnc3)cc2)cc1 (centres unmarked) [drawing 13]
Proteus vulgaris 1017
  MIC values for Proteus vulgaris 1017: 128 µg/mL
[2]
  MIC values for Staphylococcus aureus 133: 8 µg/mL
Streptococcus pyogenes W
  MIC values for Streptococcus pyogenes W: 10-20
Klebsiella 8085
  MIC values for Klebsiella 8085: 128 µg/mL

## Clc1ccccc1C(c1ccc(-c2ccccc2)cc1)n1ccnc1 (centres unmarked) [drawing 14]
Proteus vulgaris 1017
  MIC values for Proteus vulgaris 1017: 128 µg/mL
E-Coli A 261
  MIC values for E-Coli A 261: 256 µg/mL
[2]
  MIC values for Staphylococcus aureus 133: 8 µg/mL
Streptococcus pyogenes W
  MIC values for Streptococcus pyogenes W: 128
Pseudomonas aerug. B
  MIC values for Pseudomonas aerug. B: 256 µg/mL
Klebsiella 8085
  MIC values for Klebsiella 8085: 128 µg/mL

## Clc1cccc(C(c2ccc(-c3ccccc3)cc2)n2ccnc2)c1 (centres unmarked) [drawing 16]
[2]
  MIC values for Staphylococcus aureus 133: 8 µg/mL
Streptococcus pyogenes W
  MIC values for Streptococcus pyogenes W: 128

## COC1=CC(=O)C[C@@H](C)[C@]12Oc1c(Cl)c(OC)cc(OC)c1C2=O [griseofulvin]
bacteria
  antibacterial activity: not present

## C[C@@H]1[C@H](O)[C@@H](C)/C=C/C=C/CC/C=C/C=C/C=C/C=C/C(O[C@H]2O[C@H](C)[C@@H](O)[C@H](N)[C@@H]2O)CC2O[C@](O)(CC(O)C(O)CCC(O)CC(O)CC(O)CC(=O)O[C@H]1C)CC(O)C2C(=O)O (some centres unmarked) [nystatin]
bacteria
  antibacterial activity: not present

## C[C@@H]1C/C=C/C=C/C=C/C=C/[C@H](O[C@@H]2O[C@H](C)[C@@H](O)[C@H](N)[C@@H]2O)C[C@@H]2O[C@](O)(C[C@@H](O)C[C@H]3O[C@@H]3/C=C/C(=O)O1)C[C@H](O)[C@H]2C(=O)O [pimaricin]
bacteria
  antibacterial activity: not present
